Test results published in PMC7438494 (Communications Biology, 2020).
“And” between values parts separate entries of the source, which are not always exact repeats. Equal values may be shown once. Read-outs that look alike come from different tables or passages of the source.

Assays:
[1] = target: T1, yeast F1Fo ATP synthase (Saccharomyces cerevisiae, UniProt P00854+P61829); assay: biochemical
[2] = target: yeast mitochondrial ATP synthase (yeast SMP) (Saccharomyces cerevisiae, UniProt P00854+P61829); assay: biochemical; conditions: for ATP hydrolysis activity, Exp 1-3: SMP data
[3] = target: yeast mitochondrial ATP synthase (Saccharomyces cerevisiae, UniProt P00854+P61829); assay: biochemical; conditions: for inhibition at 1 µM: read-out: % inhibition; for activity at 6 µM / inhibition at 6 µM: Bedaquiline 6 μM
[4] = system: yeast mitochondria; assay: Membrane potential of yeast mitochondria, fluorescence quenching of Rhodamine 123; format: biochemical, Saccharomyces cerevisiae; conditions: high concentrations
Description: (§1) The membrane potential was assessed by measuring fluorescence quenching of Rhodamine 123 at 488 nm excitation and 525 nm emission in a buffer containing 0.65 M mannitol, 20 mM bis-tris-propane, 2 mM tris-phosphate, 0.3 mM EGTA, pH 6.8 with Rhodamine 123 dissolved in methanol (1.0 µM). Yeast mitochondria were energized with ethanol (0.4% v/v), whereas human mitochondria were energized with glutamate/malate (5 mM/2.5 mM).

[5] = system: human mitoplasts; assay: Membrane potential of human mitoplasts, fluorescence quenching of Rhodamine 123; format: biochemical; conditions: high concentrations
Description: as §1

[6] = target: T1, yeast F1Fo ATP synthase; assay: Single-particle cryo-EM of yeast F1Fo in nanodiscs with BDQ; format: binding
[7] = target: luciferase (Photinus pyralis, UniProt P08659); format: biochemical
[8] = system: MCF7 breast cancer cells; conditions: read-out: IC50, mitochondrial oxygen consumption / cell growth; cited from earlier work
[9] = system: human mitochondrial ATP synthase; conditions: reviewer's remark; ref previous reports; read-out: IC50, ATPase activity of human mitochondrial ATP synthase; cited from earlier work
[10] = system: hERG channel; conditions: read-out: IC50 for hERG; cited from earlier work
[11] = patients treated with Sirturo; placebo 2.5%; cited from earlier work
[12] = right-hand regression, fits the SMP data
[13] = 1st exp (1-11-19), Bedaquiline 0.05 μM, frozen yeast mito, 60 min
[14] = 1st exp (1-11-19), Bedaquiline 0.1 μM, frozen yeast mito, 60 min
[15] = 1st exp (1-11-19), Bedaquiline 0.5 μM, frozen yeast mito, 60 min
[16] = 1st exp (1-11-19), Bedaquiline 1 μM, frozen yeast mito, 60 min
[17] = 1st exp (1-11-19), Bedaquiline 1.4 μM, frozen yeast mito, 60 min
[18] = 1st exp (1-11-19), Bedaquiline 2 μM, frozen yeast mito, 60 min
[19] = 1st exp (1-11-19), Bedaquiline 3 μM, frozen yeast mito, 60 min
[20] = 1st exp (1-11-19), Bedaquiline 4 μM, frozen yeast mito, 60 min
[21] = 1st exp (1-11-19), frozen yeast mito, 60 min
[22] = 2nd exp (1-29-19), Bedaquiline 0.005 μM (duplicate), frozen yeast mito, 60 min
[23] = 2nd exp (1-29-19), Bedaquiline 0.05 μM, frozen yeast mito, 60 min
[24] = 2nd exp (1-29-19), Bedaquiline 0.1 μM, frozen yeast mito, 60 min
[25] = 2nd exp (1-29-19), Bedaquiline 0.5 μM, frozen yeast mito, 60 min
[26] = 2nd exp (1-29-19), Bedaquiline 1 μM, frozen yeast mito, 60 min
[27] = 2nd exp (1-29-19), Bedaquiline 1.4 μM, frozen yeast mito, 60 min
[28] = 2nd exp (1-29-19), Bedaquiline 2 μM, frozen yeast mito, 60 min
[29] = 2nd exp (1-29-19), Bedaquiline 4 μM, frozen yeast mito, 60 min
[30] = 2nd exp (1-29-19), frozen yeast mito, 60 min
[31] = 3rd exp (2-1-19), Bedaquiline 0.005 μM, frozen yeast mito, 60 min
[32] = 3rd exp (2-1-19), Bedaquiline 0.05 μM, frozen yeast mito, 60 min
[33] = 3rd exp (2-1-19), Bedaquiline 0.1 μM, frozen yeast mito, 60 min
[34] = 3rd exp (2-1-19), Bedaquiline 0.5 μM, frozen yeast mito, 60 min
[35] = 3rd exp (2-1-19), Bedaquiline 1 μM, frozen yeast mito, 60 min
[36] = 3rd exp (2-1-19), Bedaquiline 1.4 μM, frozen yeast mito, 60 min
[37] = 3rd exp (2-1-19), Bedaquiline 2 μM, frozen yeast mito, 60 min
[38] = 3rd exp (2-1-19), Bedaquiline 4 μM, frozen yeast mito, 60 min
[39] = 3rd exp (2-1-19), frozen yeast mito, 60 min

Chain of luciferase (P08659 whole entry): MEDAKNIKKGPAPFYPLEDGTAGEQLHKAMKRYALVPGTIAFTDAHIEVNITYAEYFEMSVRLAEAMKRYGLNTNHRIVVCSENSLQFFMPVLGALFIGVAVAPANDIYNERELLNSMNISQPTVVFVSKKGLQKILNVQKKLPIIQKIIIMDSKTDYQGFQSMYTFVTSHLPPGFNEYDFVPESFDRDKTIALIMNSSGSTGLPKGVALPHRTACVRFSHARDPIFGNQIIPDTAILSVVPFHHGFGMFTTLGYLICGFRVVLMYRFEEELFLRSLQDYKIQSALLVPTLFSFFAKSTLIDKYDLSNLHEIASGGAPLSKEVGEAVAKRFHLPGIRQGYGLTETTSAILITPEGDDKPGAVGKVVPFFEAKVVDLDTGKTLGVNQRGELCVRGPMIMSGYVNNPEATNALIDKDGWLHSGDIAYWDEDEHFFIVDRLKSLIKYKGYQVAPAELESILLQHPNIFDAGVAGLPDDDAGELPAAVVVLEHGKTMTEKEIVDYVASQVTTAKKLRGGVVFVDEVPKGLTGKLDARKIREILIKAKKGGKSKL

COc1nc2ccc(Br)cc2cc1[C@@H](c1ccccc1)[C@@](O)(CCN(C)C)c1cccc2ccccc12 [BDQ, Bedaquiline]
Hillslope, four parameter logistic fit ([1]; BDQ, F1Fo in bicelles): -1.0426
max, four parameter logistic fit ([1]; BDQ, F1Fo in bicelles, […]): 1.167
min, four parameter logistic fit ([1]; BDQ, F1Fo in bicelles, […]): 0.2116
EC50 ([1]; BDQ, F1Fo in bicelles, x in µM BDQ, read-out: EC50, four parameter logistic fit (coefficient) (converted)): 0.0272 µM
ATP hydrolysis activity (ΔA340nm), Exp 1-3 ([1]; F1Fo in bicelles, BDQ 0.0246 uM): 0.6436 and 0.6522 and 0.6471
ATP hydrolysis activity (ΔA340nm), Exp 1-3 ([1]; F1Fo in bicelles, BDQ 0.0372 uM): 0.615 and 0.6977 and 0.5128
ATP hydrolysis activity (ΔA340nm), Exp 1-3 ([1]; F1Fo in bicelles, BDQ 0.0744 uM): 0.5405 and 0.4979 and 0.4346
ATP hydrolysis activity (ΔA340nm), Exp 1-3 ([1]; F1Fo in bicelles, BDQ 0.25 uM): 0.379 and 0.272 and 0.2957
ATP hydrolysis activity (ΔA340nm), Exp 1-3 ([1]; F1Fo in bicelles, BDQ 0.37 uM): 0.3688 and 0.2428 and 0.2764
ATP hydrolysis activity (ΔA340nm), Exp 1-3 ([1]; F1Fo in bicelles, BDQ 0.74 uM): 0.2533 and 0.2466 and 0.2454
ATP hydrolysis activity (ΔA340nm), Exp 1-3 ([1]; F1Fo in bicelles, BDQ 1.49 uM): 0.2105 and 0.2204 and 0.2061
ATP hydrolysis activity (ΔA340nm), Exp 1-3 ([1]; F1Fo in bicelles, BDQ 3.72 uM): 0.2216 and 0.2051 and 0.1755
ATP hydrolysis activity (ΔA340nm), Exp 1-3 ([1]; F1Fo in bicelles, BDQ 7.44 uM): 0.2035 and 0.2344 and 0.1804
ATP hydrolysis activity (ΔA340nm), Exp 1-3 ([1]; F1Fo in bicelles, BDQ 18.61 uM): 0.2777 and 0.1895 and 0.1989
ATP hydrolysis activity (ΔA340nm), Exp 1-3 ([1]; F1Fo in bicelles, BDQ 37.22 uM): 0.2178 and 0.2279 and 0.1889
ATP hydrolysis activity (ΔA340nm), Exp 1-3 ([1]; F1Fo in bicelles, BDQ 52.11 uM): 0.1835 and 0.2422 and 0.1841
ATP hydrolysis activity (ΔA340nm), Exp 1-3 ([1]; F1Fo in bicelles, BDQ 74.45 uM): 0.1959 and 0.193 and 0.2223
inhibition of ATP hydrolysis by yeast F1Fo (extent) ([1]; F1Fo in bicelles, maximal): ~85%
IC50 ([1]; F1Fo in bicelles, n = 3, read-out: IC50 ± SEM, ATP hydrolysis, purified yeast F1Fo): 0.027 ± 0.0025 µM
IC50 ([1]; F1Fo in bicelles, read-out: IC50, ATP hydrolysis, purified yeast F1Fo): ~0.025 µM
EC50 ([1]; reconstituted in bicelles, n = 3, read-out: EC50, inhibition of the ATPase activity of purified yeast ATP synthase): 0.027 ± 0.0025 µM
EC50 [2]: 1.28 µM
IC50 ([2]; IC50 ± SEM, ATP hydrolysis, yeast SMP): 1.28 ± 0.25 µM
ATP hydrolysis activity, Exp 1-3 ([2]; BDQ 0.0372 uM): 0.9086 and 0.8616 and 0.8497
ATP hydrolysis activity, Exp 1-3 ([2]; BDQ 0.0744 uM): 0.9524 and 0.7514 and 0.8742
ATP hydrolysis activity, Exp 1-3 ([2]; BDQ 0.3722 uM): 0.7241 and 0.758 and 0.7412
ATP hydrolysis activity, Exp 1-3 ([2]; BDQ 0.7445 uM): 0.71 and 0.6674 and 0.5944
ATP hydrolysis activity, Exp 1-3 ([2]; BDQ 1.489 uM): 0.489 and 0.4879 and 0.5368
ATP hydrolysis activity, Exp 1-3 ([2]; BDQ 3.7225 uM): 0.2859 and 0.2741 and 0.3273
ATP hydrolysis activity, Exp 1-3 ([2]; BDQ 7.4449 uM): 0.2679 and 0.4735 and 0.3345
ATP hydrolysis activity, Exp 1-3 ([2]; BDQ 18.6123 uM): 0.1786 and 0.215 and 0.285
ATP hydrolysis activity, Exp 1-3 ([2]; BDQ 37.2245 uM): 0.1804 and 0.145 and 0.1981
Hillslope, four parameter logistic fit, second regression [2, 12]: -1.0668
max, four parameter logistic fit, second regression [2, 12]: 0.8923
min, four parameter logistic fit, second regression [2, 12]: 0.1853
Cyanide sensitive ATP synthesis [3, 13]: 49.0688 nmol/min/mg
activity at 0.05 µM [3, 13]: 106%
inhibition at 0.05 µM [3, 13]: -6.06%
Cyanide sensitive ATP synthesis [3, 14]: 39.561 nmol/min/mg
activity at 0.1 µM [3, 14]: 85.5%
inhibition at 0.1 µM [3, 14]: 14.5%
Cyanide sensitive ATP synthesis [3, 15]: 35.6774 nmol/min/mg
activity at 0.5 µM [3, 15]: 77.1%
inhibition at 0.5 µM [3, 15]: 22.9%
Cyanide sensitive ATP synthesis [3, 16]: 21.3622 nmol/min/mg
activity at 1 µM [3, 16]: 46.2%
inhibition at 1 µM [3, 16]: 53.8%
Cyanide sensitive ATP synthesis [3, 17]: 15.4854 nmol/min/mg
activity at 1.4 µM [3, 17]: 33.5%
inhibition at 1.4 µM [3, 17]: 66.5%
Cyanide sensitive ATP synthesis [3, 18]: 8.026 nmol/min/mg
activity at 2 µM [3, 18]: 17.3%
inhibition at 2 µM [3, 18]: 82.7%
Cyanide sensitive ATP synthesis [3, 19]: 3.204 nmol/min/mg
activity at 3 µM [3, 19]: 6.92%
inhibition at 3 µM [3, 19]: 93.1%
Cyanide sensitive ATP synthesis [3, 20]: 1.232 nmol/min/mg
activity at 4 µM [3, 20]: 2.66%
inhibition at 4 µM [3, 20]: 97.3%
activity at 6 µM [3, 21]: 1.64%
inhibition at 6 µM [3, 21]: 98.4%
% activity [3, 22]: 96.7896%
% inhibition [3, 22]: -3.9401% and 3.21%
Cyanide sensitive ATP synthesis [3, 22]: 54.583 nmol/min/mg and 50.828 nmol/min/mg
activity at 0.005 µM [3, 22]: 104%
Cyanide sensitive ATP synthesis [3, 23]: 50.1533 nmol/min/mg
activity at 0.05 µM [3, 23]: 95.5%
inhibition at 0.05 µM [3, 23]: 4.5%
Cyanide sensitive ATP synthesis [3, 24]: 50.0836 nmol/min/mg
activity at 0.1 µM [3, 24]: 95.4%
inhibition at 0.1 µM [3, 24]: 4.63%
Cyanide sensitive ATP synthesis [3, 25]: 46.4023 nmol/min/mg
activity at 0.5 µM [3, 25]: 88.4%
inhibition at 0.5 µM [3, 25]: 11.6%
Cyanide sensitive ATP synthesis [3, 26]: 33.1052 nmol/min/mg
activity at 1 µM [3, 26]: 63%
inhibition at 1 µM [3, 26]: 37%
Cyanide sensitive ATP synthesis [3, 27]: 15.7394 nmol/min/mg
activity at 1.4 µM [3, 27]: 30%
inhibition at 1.4 µM [3, 27]: 70%
Cyanide sensitive ATP synthesis [3, 28]: 6.265 nmol/min/mg
activity at 2 µM [3, 28]: 11.9%
inhibition at 2 µM [3, 28]: 88.1%
activity at 4 µM [3, 29]: 1.16%
inhibition at 4 µM [3, 29]: 98.8%
activity at 6 µM [3, 30]: 0.645%
inhibition at 6 µM [3, 30]: 99.4%
Cyanide sensitive ATP synthesis [3, 31]: 55.7209 nmol/min/mg
activity at 0.005 µM [3, 31]: 101%
inhibition at 0.005 µM [3, 31]: -1.01%
Cyanide sensitive ATP synthesis [3, 32]: 53.0953 nmol/min/mg
activity at 0.05 µM [3, 32]: 96.2%
inhibition at 0.05 µM [3, 32]: 3.75%
Cyanide sensitive ATP synthesis [3, 33]: 53.6873 nmol/min/mg
activity at 0.1 µM [3, 33]: 97.3%
inhibition at 0.1 µM [3, 33]: 2.68%
Cyanide sensitive ATP synthesis [3, 34]: 38.5022 nmol/min/mg
activity at 0.5 µM [3, 34]: 69.8%
inhibition at 0.5 µM [3, 34]: 30.2%
Cyanide sensitive ATP synthesis [3, 35]: 33.4087 nmol/min/mg
activity at 1 µM [3, 35]: 60.6%
inhibition at 1 µM [3, 35]: 39.4%
Cyanide sensitive ATP synthesis [3, 36]: 18.8899 nmol/min/mg
activity at 1.4 µM [3, 36]: 34.2%
inhibition at 1.4 µM [3, 36]: 65.8%
Cyanide sensitive ATP synthesis [3, 37]: 16.8178 nmol/min/mg
activity at 2 µM [3, 37]: 30.5%
inhibition at 2 µM [3, 37]: 69.5%
Cyanide sensitive ATP synthesis [3, 38]: 2.063 nmol/min/mg
activity at 4 µM [3, 38]: 3.74%
inhibition at 4 µM [3, 38]: 96.3%
activity at 6 µM [3, 39]: 1.81%
inhibition at 6 µM [3, 39]: 98.2%
IC50 ([3]; IC50 ± SEM, ATP synthesis, yeast mitochondria): 1.1 µM and ~1.1 µM
effect on membrane potential, yeast mitochondria [4]: partial effect
effect on membrane potential, human mitoplasts [5]: partial effect
binding to F1 by cryo-EM density ([6]; F1Fo map 3.9 Å): not bound to F1
binding site by cryo-EM density ([6]; Fo map 4.2 Å): at the interface between the a- and c-subunits
effect on the activity of luciferase [7]: did not affect
IC50 [8]: ~1 µM
IC50 [9]: 200 µM
IC50 [10]: ~1.7 µM
risk of death [11]: 11.4%
